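Test compounds were applied to cells in 96-well plates for 48 hours at 5 doses. TGI is the concentration that stops growth completely.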 Where a SMILES comes first, the peptide text is derived from it. [ ]: non-standard residue; d: D form.
Key:
Experiment in all cases: NCI tumour cell line growth inhibition, 48 h
NCI-H460 lung = system: NCI-H460 lung
RXF 393 renal = system: RXF 393 renal
LOX IMVI melanoma = system: LOX IMVI melanoma
TK-10 renal = system: TK-10 renal
PC-3 prostate = system: PC-3 prostate
SK-MEL-28 melanoma = system: SK-MEL-28 melanoma
MDA-MB-231 breast = system: MDA-MB-231 breast
HCC-2998 colon = system: HCC-2998 colon
HOP-92 NSCLC = system: HOP-92 NSCLC
A498 renal = system: A498 renal

Row | Structure (SMILES) | TGI (NCI-H460 lung) | TGI (RXF 393 renal) | TGI (LOX IMVI melanoma) | TGI (TK-10 renal) | TGI (PC-3 prostate) | TGI (SK-MEL-28 melanoma) | TGI (MDA-MB-231 breast) | TGI (HCC-2998 colon) | TGI (HOP-92 NSCLC) | TGI (A498 renal)
1 | [N-]=[N+]=C(C(=O)CN1CCCC1=O)S(=O)(=O)c1ccccc1 | > 100 µM | > 100 µM | > 100 µM | > 100 µM | > 100 µM | > 100 µM | > 100 µM | > 100 µM | – | –
2 | COc1cc2nc(-c3cccs3)nc(Nc3ccccc3C(=O)NN)c2cc1OC | > 100 µM | – | > 100 µM | > 100 µM | > 100 µM | > 100 µM | > 100 µM | > 100 µM | > 100 µM | > 100 µM
3 | O=C(O)C(Cc1ccccc1)Cc1ccccc1 | > 100 µM | > 100 µM | > 100 µM | > 100 µM | > 100 µM | > 100 µM | > 100 µM | – | – | > 100 µM
4 | O=C1Sc2ccccc2C(=O)N2CCSC12 (stereo not given) | > 100 µM | > 100 µM | > 100 µM | > 100 µM | – | > 100 µM | – | > 100 µM | > 100 µM | > 100 µM
5 | COC(=O)/C=C1\C(CO[Si](C)(C)C(C)(C)C)OC(n2cc(C)c(=O)n(C)c2=O)C1O[Si](C)(C)C(C)(C)C (stereo not given) | – | – | > 100 µM | > 100 µM | > 100 µM | > 100 µM | > 100 µM | – | > 100 µM | > 100 µM
6 | CCOC(=O)c1nc2ccccc2nc1Nc1ccc(C(=O)OC)s1 | > 100 µM | – | > 100 µM | > 100 µM | > 100 µM | > 100 µM | > 100 µM | > 100 µM | > 100 µM | > 100 µM
7 | N#CC1=C(O)NC(O)=C(C#N)C1c1c(Cl)cccc1Cl | 61.5 µM | 28.7 µM | 32 µM | > 100 µM | – | > 100 µM | – | 60 µM | 43.9 µM | 64.5 µM
8 | O/N=C1\C/C(=N\O)c2c(Br)sc(Br)c21 | > 100 µM | – | 45.2 µM | > 100 µM | – | 63.2 µM | > 100 µM | 50.2 µM | > 100 µM | > 100 µM
9 | O=C1CCC2(O)c3ccccc3C2Cc2ccccc21 (stereo not given) | > 100 µM | > 100 µM | > 100 µM | > 100 µM | – | > 100 µM | – | > 100 µM | > 100 µM | –
10 | O=C1C(Cl)N(c2ccc([N+](=O)[O-])cc2)C1c1c[nH]c2ccccc12 (stereo not given) | > 100 µM | > 100 µM | – | > 100 µM | – | > 100 µM | – | – | > 100 µM | –
11 | COc1cc(C(c2ccccc2)N2C(=O)CC[C@H]2C(=O)O)cc(OC)c1OC (stereo not given in full) | > 100 µM | – | > 100 µM | > 100 µM | > 100 µM | > 100 µM | – | > 100 µM | > 100 µM | > 100 µM
12 | Clc1ccc(C2SCc3nc4ccccc4n32)cc1 (stereo not given) | 93.3 µM | – | 40.6 µM | > 100 µM | – | 68.1 µM | – | – | 22.3 µM | 55.5 µM
13 | CCCCCCc1ccc(CCCCCCCC(=O)O)o1 | > 100 µM | – | > 100 µM | – | > 100 µM | > 100 µM | – | > 100 µM | > 100 µM | –
14 | N=C(N)SCc1nc(-c2ccc(Cl)cc2)no1 | > 100 µM | 25 µM | 31.2 µM | 40.8 µM | 37.5 µM | 33 µM | 35.9 µM | – | 77.6 µM | 32.3 µM
15 | O=C1C(c2ccccc2)=C(c2ccccc2)C1(Cl)Cl | 20.8 µM | – | 4.25 µM | 2.81 µM | 14.3 µM | 10.9 µM | 7.84 µM | 13.3 µM | 7.14 µM | 17.2 µM
16 | CC(C)C[C@H](NC(=O)[C@H](CC(C)C)NC(=O)[C@@H](Cc1c[nH]c2ccccc12)NC(=O)[C@H](Cc1ccccc1)NC(=O)[C@@H](Cc1c[nH]c2ccccc12)NC(=O)[C@H](CCC(N)=O)NC(=O)[C@@H](CCC(N)=O)NC(=O)[C@@H]1CCCN1C(=O)[C@@H](CCCCN)NC(=O)[C@H]1CCCN1C(=O)[C@H](N)CCCN=C(N)N)C(N)=O (H-[dR][dP][dK]P[dQ]Q[dW]F[dW]LL-NH2) | > 100 µM | > 100 µM | > 100 µM | – | – | > 100 µM | – | > 100 µM | > 100 µM | 88.1 µM
17 | Cc1cnc2c(c1)C(=O)N(c1ccc(Oc3ccccc3)cc1)S2(=O)=O | > 100 µM | – | > 100 µM | > 100 µM | > 100 µM | > 100 µM | > 100 µM | > 100 µM | > 100 µM | –
18 | Cc1cc(C)[n+]2c(c1)C=CC2 | > 100 µM | 25.1 µM | > 100 µM | > 100 µM | – | > 100 µM | – | > 100 µM | > 100 µM | –
19 | O=S(=O)(O)c1cc(S(=O)(=O)O)c2cc(N=Nc3ccc(N=Nc4ccc(/C=C/c5ccc(N=[N+]([O-])c6ccc(/C=C/c7ccc(N=Nc8ccc(N=Nc9ccc%10cc(S(=O)(=O)O)cc(S(=O)(=O)O)c%10c9)cc8)cc7S(=O)(=O)O)c(S(=O)(=O)O)c6)cc5S(=O)(=O)O)c(S(=O)(=O)O)c4)cc3)ccc2c1 | > 100 µM | > 78.7 µM | > 100 µM | – | – | > 100 µM | – | > 100 µM | 98.9 µM | > 100 µM
20 | N#CCCN(CCCCN(CCC#N)C(=O)Nc1ccccc1)C(=O)Nc1ccccc1 | > 100 µM | > 100 µM | > 100 µM | – | > 100 µM | > 100 µM | > 100 µM | > 100 µM | – | > 100 µM
21 | CCN(CC)/N=C\c1c2ccccc2cc2ccccc12 | > 100 µM | 57.3 µM | – | > 100 µM | > 100 µM | > 100 µM | > 100 µM | – | 61.1 µM | > 100 µM
22 | CC(C)OC1=C(CC2(C)OCCO2)C(=O)C12OCCO2 | > 100 µM | – | > 100 µM | > 100 µM | > 100 µM | > 100 µM | > 100 µM | – | > 100 µM | > 100 µM
23 | COP(=O)(CP(=O)(OC)OCCC(C)CCC=C(C)C)OC (stereo not given) | > 100 µM | > 100 µM | > 100 µM | > 100 µM | > 100 µM | > 100 µM | 44.7 µM | > 100 µM | – | > 100 µM
24 | COc1ccc(/C(=N/O)c2ccccc2C2=Nc3ccccc3C(NCc3ccccc3)O2)cc1C (stereo not given) | > 100 µM | > 100 µM | > 100 µM | – | > 100 µM | > 100 µM | > 100 µM | > 100 µM | 71.9 µM | –

From PubChem BioAssay (NCI)
